According to patent publication US20090181910A1, “METHOD OF PREVENTION AND ALLEVIATION OF TOXICITY BY MODULATION OF IRF3” (priority 2006, published 2009):

System: CRBPII
Test: RAW 264.7 Q-PCR: CRBPII
Assay type: cell-based, murine
Details: RXRα overexpressing RAW 264.7 cells; FIG. 10d

Substance: polyinosinic:polycytidylic acid [polyI:C]
- LG268 induced CRBPII: unable to repress LG268 induced CRBPII
